Data taken from PMC6832266, “Natural Sesquiterpene Lactones of the 4,15-iso-Atriplicolide Type are Inhibitors of Trypanothione Reductase” (Molecules, 2019).

How the values were obtained:
Assay type in all cases: biochemical
[1] = target: T1, trypanothione reductase (TbTR) (Trypanosoma brucei, UniProt P39051); experiment: NADPH-consumption TR assay on recombinant enzyme, % inhibition at […] after […] min preincubation; dilution assay; conditions: read-out: TbTR / % Inhibition at c = 100 μM Preincubation Time (min)
T1 construct: gene TPR
T1 sequence (P39051 whole entry): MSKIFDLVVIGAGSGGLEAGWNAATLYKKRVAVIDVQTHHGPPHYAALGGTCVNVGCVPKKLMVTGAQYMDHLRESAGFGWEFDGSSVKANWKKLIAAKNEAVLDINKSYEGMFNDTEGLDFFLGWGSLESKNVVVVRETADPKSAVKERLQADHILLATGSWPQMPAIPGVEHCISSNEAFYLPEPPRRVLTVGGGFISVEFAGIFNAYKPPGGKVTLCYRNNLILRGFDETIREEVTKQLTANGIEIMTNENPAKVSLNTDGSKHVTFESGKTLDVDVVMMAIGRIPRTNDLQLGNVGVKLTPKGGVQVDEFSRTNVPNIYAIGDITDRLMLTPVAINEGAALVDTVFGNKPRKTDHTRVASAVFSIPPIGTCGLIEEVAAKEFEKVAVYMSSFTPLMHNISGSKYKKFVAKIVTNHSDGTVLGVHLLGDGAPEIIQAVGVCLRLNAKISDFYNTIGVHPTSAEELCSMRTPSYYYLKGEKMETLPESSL

[2] = target: T2, trypanothione reductase (TcTR) (Trypanosoma cruzi, UniProt P28593); experiment: NADPH-consumption TR assay on recombinant enzyme, % inhibition at […] after […] min preincubation; conditions: read-out: TcTR / % Inhibition at c = 100 μM Preincubation Time (min)
T2 construct: gene TPR
T2 sequence (P28593 whole entry): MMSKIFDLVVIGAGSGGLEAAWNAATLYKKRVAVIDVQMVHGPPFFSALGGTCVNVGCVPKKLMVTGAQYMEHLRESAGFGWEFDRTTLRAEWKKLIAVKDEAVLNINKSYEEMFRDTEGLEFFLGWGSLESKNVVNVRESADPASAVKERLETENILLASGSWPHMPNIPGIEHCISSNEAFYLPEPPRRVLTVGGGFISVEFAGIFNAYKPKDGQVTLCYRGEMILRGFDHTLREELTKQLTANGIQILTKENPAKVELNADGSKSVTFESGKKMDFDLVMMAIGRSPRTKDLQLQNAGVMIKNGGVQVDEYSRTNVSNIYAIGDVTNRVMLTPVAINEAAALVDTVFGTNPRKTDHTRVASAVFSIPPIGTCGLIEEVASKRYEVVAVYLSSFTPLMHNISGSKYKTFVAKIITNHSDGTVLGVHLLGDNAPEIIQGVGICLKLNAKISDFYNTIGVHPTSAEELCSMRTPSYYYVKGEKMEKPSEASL

[3] = target: T1, trypanothione reductase (TbTR); experiment: NADPH-consumption TR assay on recombinant enzyme; Lineweaver-Burk kinetics; dilution assay (irreversible, time-dependent)

`C=C(C)C(=O)O[C@@H]1C[C@@]2(C)OC(=CC2=O)C(=C)C[C@H]2OC(=O)C(=C)[C@H]12` [compound 2, 4,15-iso-atriplicolide methacrylate] gave an inhibition at 100 µM [1] of 84% and an inhibition at 100 µM [2] of 41 ± 1%.

Work on `C=C1C[C@H]2OC(=O)C(=C)[C@@H]2[C@H](OC(=O)/C(C)=C/C)C[C@@]2(C)OC1=CC2=O` [compound 1, 4,15-iso-Atriplicolide tiglate] yielded an inhibition at 100 µM [2] of 89 ± 1% and a Ki [3] of 128 ± 8 µM.

`C=C1C[C@H]2OC(=O)C(=C)[C@@H]2[C@H](OC(=O)C(C)C)C[C@@]2(C)OC1=CC2=O` [compound 3, 4,15-iso-atriplicolide isobutyrate] was tested, and the inhibition at 100 µM [1] was 79% and the inhibition at 100 µM [2] was 80%.
